Reference: patent US5011836A, “Agents for the treatment of acute and chronic obstructive respiratory passage diseases” (Dr. Karl Thomae GmbH, priority 1988, dated 1991)
Entries after “also recorded” stand apart in the source; their conditions may differ.

Columns and labels:
[1] = test system: effect of acetylcholine on bladder; assay: Inhibition of the effect of acetylcholine on the bladder (contraction of the exposed bladder), anaesthetised guinea-pigs; assay type: in vivo; conditions: Cavia porcellus, iv, 5 min; anaesthetised guinea-pig; 10 μg/kg acetylcholine i.v. and intraarterially 5 minutes after test substance; read-out: -log DE50 Bladder (converted)
Method: (§1) 5 minutes after administration of the test substance to anaesthetised guinea-pigs, 10 μg/kg of acetylcholine was injected intravenously and, at the same time, intraarterially. At the same time, the heart rate was recorded by extracorporeal derivation of the ECG, the respiratory passage resistance by Konzett-Rossler and the contraction of the exposed bladder directly. For the inhibition of the effect of acetylcholine on the organs examined, dosage-activity curves were recorded and -log ED50 values were determined therefrom.

[2] = biological target: T1, muscarinic receptors, cortex (M1) (Rattus norvegicus, UniProt P08482); assay: Receptor binding test in vitro, 3H-pirenzepine, cerebral cortex (M1); set-up: species or system Sprague-Dawley rat; conditions: for IC50: 1 nanomolar 3H-pirenzepine, rat cerebral cortex homogenate, 30° C., 45 minutes, pH 7.4, read-out: IC50 3H-PZ Cortex (M1); for M1-selectivity in receptor binding studies (in words): cortex M1 compared to heart and submandible
T1 construct: After removing the heart, submandible and cerebral cortex; from tissue; host or cells: Sprague-Dawley rat cerebral cortex homogenate
T1 sequence (P08482 1-460): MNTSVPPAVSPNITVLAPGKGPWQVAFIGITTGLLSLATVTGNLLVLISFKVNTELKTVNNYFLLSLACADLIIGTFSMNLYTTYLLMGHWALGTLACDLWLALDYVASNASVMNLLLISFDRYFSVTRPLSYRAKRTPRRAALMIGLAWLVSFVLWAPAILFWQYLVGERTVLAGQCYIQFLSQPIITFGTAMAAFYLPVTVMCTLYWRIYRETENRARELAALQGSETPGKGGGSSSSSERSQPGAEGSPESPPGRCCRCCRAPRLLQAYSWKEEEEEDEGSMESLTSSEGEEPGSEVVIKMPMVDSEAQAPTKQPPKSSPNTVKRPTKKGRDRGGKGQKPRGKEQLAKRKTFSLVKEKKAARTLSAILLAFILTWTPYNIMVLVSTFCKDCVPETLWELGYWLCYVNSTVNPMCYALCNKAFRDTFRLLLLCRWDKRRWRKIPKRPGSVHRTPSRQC
Method: (§2) Sprague-Dawley rats having body weights of 180-220 g were used as organ donors. After removing the heart, submandible and cerebral cortex, all further steps were carried out in ice-cold Hepes-HCl buffer (pH 7.4; 100 m molar NaCl, 10 m molar MgCl2). The entire heart was comminuted using a pair of scissors. All organs were then homogenised in a Potter.
(§3) For the binding test, the organ homogenates were diluted in the following manner(ratio by volume):
(§4) The incubation of the organ homogenates was carried out at a defined concentration of the radioligand and a number of concentrations of the non-radioactive test substances in Eppendorf centrifuge tubes at 30° C. The incubation period was 45 minutes. 0.3 nanomolar ^3 H-N-methylscopolamine (^3 H-NMS, heart and submandible) or 1 nanomolar ^3 H-pirenzepine (^3 H-PZ, cerebrum) were used as the radioligand. The incubation was ended by addition of ice-cold buffer with subsequent vacuum filtration. The filter was washed with cold buffer and its radioactivity was determined. This represents the total of specific and non-specific binding of ^3 H-NMS or ^3 H-PZ. The proportion of non-specific binding was defined as that radioactivity which was bound in the presence of 1μ molar quinuclidinylbenzylate. Four-fold determinations were always carried out. The IC50 values of non-labelled test substances were determined graphically. They represent that concentration of the test substance at which the specific binding of ^3 H-NMS or ^3 H-PZ to the muscarinic receptors in the various organs was inhibited by 50%.

[3] = biological target: T2, muscarinic receptors, heart (M2) (Rattus norvegicus, UniProt P10980); assay: Receptor binding test in vitro, 3H-N-methylscopolamine, heart (M2); set-up: species or system Sprague-Dawley rat
T2 construct: After removing the heart, submandible and cerebral cortex; from tissue; host or cells: Sprague-Dawley rat entire heart homogenate
T2 sequence (P10980 1-466): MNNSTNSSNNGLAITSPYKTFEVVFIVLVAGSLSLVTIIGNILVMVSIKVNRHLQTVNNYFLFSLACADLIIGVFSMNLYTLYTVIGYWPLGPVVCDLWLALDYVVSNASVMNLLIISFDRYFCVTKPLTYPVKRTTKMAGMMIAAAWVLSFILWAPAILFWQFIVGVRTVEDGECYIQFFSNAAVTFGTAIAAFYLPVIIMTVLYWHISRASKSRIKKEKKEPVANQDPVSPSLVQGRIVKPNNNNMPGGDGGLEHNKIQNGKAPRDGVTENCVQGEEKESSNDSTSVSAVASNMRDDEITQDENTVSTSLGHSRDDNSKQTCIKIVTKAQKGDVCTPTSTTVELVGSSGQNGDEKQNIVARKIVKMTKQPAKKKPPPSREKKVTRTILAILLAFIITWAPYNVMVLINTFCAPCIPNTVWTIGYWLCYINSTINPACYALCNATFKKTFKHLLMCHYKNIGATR
Method: as §2, §3, §4

[4] = test system: effect of acetylcholine on bronchi; assay: Inhibition of the effect of acetylcholine on the bronchi (respiratory passage resistance, Konzett-Rossler), anaesthetised guinea-pigs; assay type: in vivo, guinea-pig; conditions: for ED50: Cavia porcellus, iv, 5 min, read-out: -log DE50 Bronchi; for selectivity of inhibition of acetylcholine-induced bronchoconstriction versus effects on heart and bladder (in words): bronchi compared to heart and bladder, guinea-pig
Method: as §1

[5] = test system: effect of acetylcholine on heart rate; assay: Inhibition of the effect of acetylcholine on the heart rate (ECG), anaesthetised guinea-pigs; assay type: in vivo; conditions: Cavia porcellus, iv, 5 min, anaesthetised guinea-pig, 10 μg/kg acetylcholine i.v. and intraarterially 5 minutes after test substance, read-out: -log DE50 Heart (converted)
Method: as §1

[6] = biological target: T3, muscarinic receptors, submandible (M3) (Rattus norvegicus, UniProt P08483); assay: Receptor binding test in vitro, 3H-N-methylscopolamine, submandible (M3); set-up: species or system Sprague-Dawley rat; conditions: 0.3 nanomolar 3H-N-methylscopolamine, rat submandible homogenate, 30° C., 45 minutes, pH 7.4; read-out: IC50 3H-NMS Submandible (M3)
T3 construct: After removing the heart, submandible and cerebral cortex; from tissue; host or cells: Sprague-Dawley rat submandibular gland ('submandible') homogenate
Method: as §2, §3, §4

T3 sequence (P08483 whole entry): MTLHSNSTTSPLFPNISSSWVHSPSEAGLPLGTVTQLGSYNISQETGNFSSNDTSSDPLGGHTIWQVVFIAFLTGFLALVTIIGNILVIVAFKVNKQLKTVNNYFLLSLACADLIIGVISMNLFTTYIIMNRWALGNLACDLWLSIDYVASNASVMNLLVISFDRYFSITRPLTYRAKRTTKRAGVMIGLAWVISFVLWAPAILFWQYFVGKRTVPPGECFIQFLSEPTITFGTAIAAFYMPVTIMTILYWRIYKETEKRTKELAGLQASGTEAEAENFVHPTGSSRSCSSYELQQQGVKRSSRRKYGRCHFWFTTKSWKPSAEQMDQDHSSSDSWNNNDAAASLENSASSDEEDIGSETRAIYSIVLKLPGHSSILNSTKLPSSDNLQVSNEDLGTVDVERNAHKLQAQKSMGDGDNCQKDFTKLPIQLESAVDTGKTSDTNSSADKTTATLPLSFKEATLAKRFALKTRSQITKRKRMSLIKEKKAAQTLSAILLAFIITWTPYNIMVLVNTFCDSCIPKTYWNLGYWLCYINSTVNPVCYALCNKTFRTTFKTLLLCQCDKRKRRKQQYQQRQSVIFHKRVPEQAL

Structure (SMILES)	ED50 [1] [µmol/kg]	IC50 [2] [nM]	M1-selectivity in receptor binding studies (in words) [2]	IC50 [3] [nM]	ED50 [4] [µmol/kg]	selectivity of inhibition of acetylcholine-induced bronchoconstriction versus effects on heart and bladder (in words) [4]	ED50 [5] [µmol/kg]	IC50 [6] [nM]
CN1CCC(NC(=O)C2c3ccccc3NC(=O)c3ccccc32)CC1 (racemic) [Substance A, 5,11-dihydro-11-[[(1-methyl-4-piperidinyl)amino]carbonyl]-6H-dibenz[b,e]azepin-6-one]	0.537	6	marked M1 -selectivity; also recorded: lower IC50 values for the cortex M1 receptor compared to muscarinic receptors in preparations of the heart and submandible; also recorded: M1 -selectivity in in vitro receptor binding studies	400	0.055	marked selectivity for the inhibition of the bronchoconstriction; also recorded: even at dosages at which no effects on the heart and bladder are observed; also recorded: more strongly inhibit the cholinergically induced bronchoconstriction in functional tests than frequency effects on the heart or the bladder contraction	0.955	70
CN1CCC(CC(=O)C2c3ccccc3NC(=O)c3ccccc32)CC1 (racemic) [Substance B, 5,11-dihydro-11-[(1-methyl-4-piperidinyl)acetyl]-6H-dibenz[b,e]azepin-6-one]	0.813	2.5	marked M1 -selectivity; also recorded: lower IC50 values for the cortex M1 receptor compared to muscarinic receptors in preparations of the heart and submandible; also recorded: M1 -selectivity in in vitro receptor binding studies	42	0.182	marked selectivity for the inhibition of the bronchoconstriction; also recorded: even at dosages at which no effects on the heart and bladder are observed; also recorded: more strongly inhibit the cholinergically induced bronchoconstriction in functional tests than frequency effects on the heart or the bladder contraction	0.851	13
CN1CCN(CC(=O)C2c3ccccc3NC(=O)c3ccccc32)CC1 (racemic) [Substance C, 5,11-dihydro-11-[(4-methyl-1-piperazinyl)acetyl]-6H-dibenz[b,e]azepin-6-one]	5.37	8	marked M1 -selectivity; also recorded: lower IC50 values for the cortex M1 receptor compared to muscarinic receptors in preparations of the heart and submandible; also recorded: M1 -selectivity in in vitro receptor binding studies	800	0.275	marked selectivity for the inhibition of the bronchoconstriction; also recorded: even at dosages at which no effects on the heart and bladder are observed; also recorded: more strongly inhibit the cholinergically induced bronchoconstriction in functional tests than frequency effects on the heart or the bladder contraction	1.78	100
CN1CCC(NC(=O)C2c3ccccc3NC(=O)c3ccccc32)CC1 (single isomer, unassigned; (+)) [Substance D, (+)-5,11-dihydro-11-[[(1-methyl-4-piperidinyl)amino]carbonyl]-6H-dibenz[b,e]azepin-6-one]	0.309	3	marked M1 -selectivity; also recorded: lower IC50 values for the cortex M1 receptor compared to muscarinic receptors in preparations of the heart and submandible; also recorded: M1 -selectivity in in vitro receptor binding studies	300	0.0331	even at dosages at which no effects on the heart and bladder are observed; also recorded: more strongly inhibit the cholinergically induced bronchoconstriction in functional tests than frequency effects on the heart or the bladder contraction	0.407	50
